Literature values in US7163702B1 (priority 2004, dated 2007).

Conditions: human, in vivo

SMILES: N=C(N)c1ccc(OCCCCCOc2ccc(C(=N)N)cc2)cc1 [pentamidine]
- incidence of adverse reactions: around 50%
